Data published in ChEMBL document CHEMBL1137793, “Synthesis and biological activity of analogs of fecapentaene-12” (J Nat Prod, 1987).

Assays:
Settings in all cases: salmonella enterica subsp. enterica serovar typhimurium
Salmonella typhimurium [1] = assay: Toxicity in Salmonella Typhimurium TA98 at 10000 ng/plate after 48 hrs by Ames assay; format: organism-based
Salmonella typhimurium [2] = assay: Toxicity in Salmonella Typhimurium TA98 at 5000 ng/plate after 48 hrs by Ames assay; format: organism-based
Salmonella typhimurium [3] = assay: Mutagenic activity in Salmonella Typhimurium TA100 assessed as number of revertant colonies at 313 ng/plate after 48 hrs by Ames assay; format: toxicity, organism-based
Salmonella typhimurium [4] = assay: Mutagenic activity in Salmonella Typhimurium TA100 assessed as number of revertant colonies at 156 ng/plate after 48 hrs by Ames assay; format: toxicity, organism-based
Salmonella typhimurium [5] = assay: Mutagenic activity in Salmonella Typhimurium TA100 assessed as number of revertant colonies at 78 ng/plate after 48 hrs by Ames assay; format: toxicity, organism-based
Salmonella typhimurium [6] = assay: Mutagenic activity in Salmonella Typhimurium TA100 assessed as number of revertant colonies at 36 ng/plate after 48 hrs by Ames assay; format: toxicity, organism-based
Salmonella typhimurium [7] = assay: Toxicity in Salmonella Typhimurium TA100 at 10000 ng/plate after 48 hrs by Ames assay; format: organism-based
Salmonella typhimurium [8] = assay: Toxicity in Salmonella Typhimurium TA100 at 5000 ng/plate after 48 hrs by Ames assay; format: organism-based
Salmonella typhimurium [9] = assay: Toxicity in Salmonella Typhimurium TA100 at 2500 ng/plate after 48 hrs by Ames assay; format: organism-based
Salmonella typhimurium [10] = assay: Toxicity in aldehyde-sensitive Salmonella Typhimurium TA104 at 10000 ng/plate after 48 hrs by Ames assay; format: organism-based
Salmonella typhimurium [11] = assay: Toxicity in aldehyde-sensitive Salmonella Typhimurium TA104 at 5000 ng/plate after 48 hrs by Ames assay; format: organism-based
Salmonella typhimurium [12] = assay: Toxicity in aldehyde-sensitive Salmonella Typhimurium TA104 at 2500 ng/plate after 48 hrs by Ames assay; format: organism-based
Salmonella typhimurium [13] = assay: Mutagenic activity in Salmonella Typhimurium TA100 assessed as number of revertant colonies at 100000 ng/plate after 48 hrs by Ames assay; format: toxicity, organism-based
Salmonella typhimurium [14] = assay: Mutagenic activity in Salmonella Typhimurium TA100 assessed as number of revertant colonies at 50000 ng/plate after 48 hrs by Ames assay; format: toxicity, organism-based
Salmonella typhimurium [15] = assay: Mutagenic activity in Salmonella Typhimurium TA100 assessed as number of revertant colonies at 25000 ng/plate after 48 hrs by Ames assay; format: toxicity, organism-based
Salmonella typhimurium [16] = assay: Mutagenic activity in aldehyde-sensitive Salmonella Typhimurium TA104 assessed as number of revertant colonies at 100000 ng/plate after 48 hrs by Ames assay; format: toxicity, organism-based
Salmonella typhimurium [17] = assay: Mutagenic activity in aldehyde-sensitive Salmonella Typhimurium TA104 assessed as number of revertant colonies at 50000 ng/plate after 48 hrs by Ames assay; format: toxicity, organism-based
Salmonella typhimurium [18] = assay: Mutagenic activity in aldehyde-sensitive Salmonella Typhimurium TA104 assessed as number of revertant colonies at 25000 ng/plate after 48 hrs by Ames assay; format: toxicity, organism-based
Salmonella typhimurium [19] = assay: Mutagenic activity in Salmonella Typhimurium TA98 assessed as number of revertant colonies at 100000 ng/plate after 48 hrs by Ames assay; format: toxicity, organism-based
Salmonella typhimurium [20] = assay: Mutagenic activity in Salmonella Typhimurium TA98 assessed as number of revertant colonies at 50000 ng/plate after 48 hrs by Ames assay; format: toxicity, organism-based

SMILES	Activity (Salmonella typhimurium [1])	Activity (Salmonella typhimurium [2])	Activity (Salmonella typhimurium [3])	Activity (Salmonella typhimurium [4])	Activity (Salmonella typhimurium [5])	Activity (Salmonella typhimurium [6])	Activity (Salmonella typhimurium [7])	Activity (Salmonella typhimurium [8])	Activity (Salmonella typhimurium [9])	Activity (Salmonella typhimurium [10])	Activity (Salmonella typhimurium [11])	Activity (Salmonella typhimurium [12])	Activity (Salmonella typhimurium [13])	Activity (Salmonella typhimurium [14])	Activity (Salmonella typhimurium [15])	Activity (Salmonella typhimurium [16])	Activity (Salmonella typhimurium [17])	Activity (Salmonella typhimurium [18])	Activity (Salmonella typhimurium [19])	Activity (Salmonella typhimurium [20])
CC/C=C/C=C/C=C/C=C/C=C/OCC(O)CO (racemic)	Toxic	Toxic	799	561	204	184	Toxic	Toxic	Toxic	Toxic	Toxic	Toxic								
CC/C=C/C=C/C=C/C=C/C=C/OC[C@@H](O)CO	Toxic	Toxic	612	459	306	187	Toxic	Toxic	Toxic											
CC/C=C/C=C/C=C/C=C/C=O													221	187	185	181	186	165	23	24
